The source of these data is patent US11607421B2, “Ethanolamine-based lipid biosynthetic compounds, method of making and use thereof” (Metanoi Therapeutics, Inc., priority 2016, dated 2023).

Data set [1] can be described thus: Stability in simulated gastric fluid (SGF). The data set is classed as in vitro ADME. The note with it: 10 μM, SGF pH 1.2, over 1 h. The procedure: Samples (100 μl) were drawn at 0, 15, 30 and 60 min from SGF reaction-vials and at 0, 30, 60 and 120 min from SIF reaction-vials, quenched with acetonitrile, vortex-mixed, and centrifuged before supernatant analysis by LC-MS/MS analysis. […] For PK studies, a sparse sampling design with 3 mice per time point was used to collect blood samples at 5, 10, 15, 30 min and 1, 2, 3, 4, 5 and 6 h in K2EDTA-coated tubes. The pharmacokinetic parameters (AUClast, Cmax, CL and Vss) were calculated using non-compartmental analysis tool of Phoenix WinNonlin software (version 6.3).
Given the extreme pH and various digestive enzymes, the GI tract presents a harsh environment to any ingested xenobiotic. Thus, many potential drug candidates are degraded in the GI tract, explaining their decreased bioavailability or inability to reach the target at effective concentrations. Simulated gastric fluid (SGF; pH 1.2) and simulated intestinal fluid (SIF; pH 6.8) closely mimic the GI tract environment and are amenable in vitro systems to evaluate degradation of a compound in GI tract (US Pharmacopoia).
Simulated gastric fluid was prepared as per U.S. Pharmacopeia (USP) methods. Sodium chloride (2 g) and pepsin (3.2 g, from porcine stomach mucosa) were dissolved in 7.0 ml hydrochloric acid and Milli-Q water to make up the volume to 1000 ml and the pH was adjusted to 1.2. […]

Data set [2] concerns CK KD PC-3 cells. The experiment in a line: MTT assay in choline kinase knock down cells (siRNA). The data set is classed as cell-based. The note with it: Homo sapiens, PC-3, 48 h; read-out: decrease in cell viability. An excerpt:
(Panel D) Choline kinase expression in prostate cancer cell lines (PC-3, DU145 and C42B) and normal prostate cell line (RWPE-1). GAPDH was used as a loading control. (Panel E) Scatter-plot comparing choline kinase expression in normal and cancer tissue from prostate cancer patients (p=0.002). The p value for statistical significance was set up as 0.05, while the fold change was defined as mean of all individual data points of analyzed datasets. (Panel Fi) Micrographs showing immunohistochemical staining of choline kinase enzyme in normal and cancer tissue from prostate cancer patients. (Panel Fii) Quantification (composite score) of choline kinase expression in normal and cancer tissue from prostate cancer patient. Five normal and five cancer tissue cases on TMA were scored for choline kinase staining percentage and intensity and composite scores were calculated using two parameters. As shown in these figures, choline kinase enzyme is highly expressed in cancer tissue as opposed to normal tissue.
A siRNA approach was further employed to confirm the role of CK in Etn-induced cell death.
For orientation: Tetrazolium assays rely on reduction of a dye to a coloured formazan, in cell work by metabolically active cells.

The subject of data set [3] is Ki67. Kind of data set: Immunohistochemical staining of PC-3-luc xenografts. It is filed as in vivo, mice. The note with it: Etn-treated tumors (40 mg/kg). The procedure: (§1) OCR was measured using an oxygen electrode.
While ˜62% cells were Ki67-positive in untreated control tumors, Ki67 positivity was reduced to ˜40% in Etn-treated tumors (FIG. 14, panel Dii).
Tumors were formalin-fixed, paraffin-embedded and 5 μm thick prostate tumor sections were stained for Ki67 and c-PARP, and prostate cancer TMA (US Biomax, Derwood, Mass.) was immunostained for choline kinase. All stained slides were examined by a pathologist in a blinded-manner.

Data set [4] concerns plasma proteins. The experiment in a line: Binding to proteins in plasma (ultrafiltration). It is filed as in vitro ADME. The note with it: pH 7.4, 37° C., 30 min. The procedure: Plasma from human, dog, rat and mouse were thawed and incubated at 37° C. The pH of the plasma was adjusted to 7.4 using dilute hydrochloric acid. A 5 μL aliquot of ethanolamine (2 mM) was spiked into 995 μL of plasma and incubated at 37° C. for 30 min in CO2 incubator. One mL aliquots of plasma were transferred to ultrafiltration tubes for analysis. All ultrafiltration tubes were centrifuged at 1000 g for 20 min. Samples from top and bottom chamber of ultrafiltration tube were collected. Equal volume of blank plasma and ultrafiltrate were mixed to ultrafiltrate and plasma to make the matrix same. Samples were processed by using acetonitrile containing internal standard and subjected to LC/MS/MS analysis.

Data set [5] concerns p53, p21, Bax, pBcl-2, c-PARP, Bim, Bid, HIF1-α. The experiment in a line: Immunoblot of PC-3-luc tumor lysates. The data set is classed as in vivo, mice. The procedure: as §1
Since p21, Bax and pBcl2 are downstream effectors of p53, p53 expression levels were examined in control and Etn-treated tumors, as well as control and Etn-treated PC-3 cells.
To test this hypothesis, HIF1-α expression levels were analyzed in Etn-treated tumors and PC-3 cells. […] DMOG, an HIF1-α activator, was then employed to test whether Etn-mediated cell death in PC-3 cells was associated with HIF1-α stabilization (active HIF1-α signaling).
Proteins were resolved by polyacrylamide gel electrophoresis and transferred onto polyvinylidene difluoride membranes (Millipore, Billerica, Mass., USA). The membranes were blocked in Tris-buffered saline containing 0.05% Tween-20 and 5% fat-free dry milk and incubated first with primary antibodies and then with horseradish peroxidase-conjugated secondary antibodies. Specific proteins were visualized with enhanced chemiluminescence detection reagent according to the manufacturer's instructions (Pierce Biotechnology, Rockford, Ill., USA).
(In western blotting, separated proteins are transferred to a membrane and probed.)

The subject of data set [6] is DU145. Kind of data set: DU145 prostate tumor xenograft. The note with it: 40 mg/kg Etn, oral gavage, 4 weeks.
Data set [7] deals with CYP1A2 (Homo sapiens, UniProt P05177). The experiment in a line: CYP inhibition in human liver microsomes. (In general: Microsomes from liver hold many membrane-bound enzymes, among them those of drug oxidation.)
The target in data set [8] is CYP2B6 (Homo sapiens, UniProt P20813). The experiment in a line: CYP inhibition in human liver microsomes.
Data set [9] has as its target CYP2C8 (Homo sapiens, UniProt P10632). The experiment in a line: CYP inhibition in human liver microsomes.
For data set [10], the target named is CYP2E1 (Homo sapiens, UniProt P05181). Kind of data set: CYP inhibition in human liver microsomes.
Data set [11] has as its system PC-3 cells. The experiment in a line: Glucose and glutamine contents in cultured cells (LC-MS/MS). The note with it: 2 mg/ml Etn for 48 h vs control cells.

Chain of CYP1A2 (P05177 whole entry): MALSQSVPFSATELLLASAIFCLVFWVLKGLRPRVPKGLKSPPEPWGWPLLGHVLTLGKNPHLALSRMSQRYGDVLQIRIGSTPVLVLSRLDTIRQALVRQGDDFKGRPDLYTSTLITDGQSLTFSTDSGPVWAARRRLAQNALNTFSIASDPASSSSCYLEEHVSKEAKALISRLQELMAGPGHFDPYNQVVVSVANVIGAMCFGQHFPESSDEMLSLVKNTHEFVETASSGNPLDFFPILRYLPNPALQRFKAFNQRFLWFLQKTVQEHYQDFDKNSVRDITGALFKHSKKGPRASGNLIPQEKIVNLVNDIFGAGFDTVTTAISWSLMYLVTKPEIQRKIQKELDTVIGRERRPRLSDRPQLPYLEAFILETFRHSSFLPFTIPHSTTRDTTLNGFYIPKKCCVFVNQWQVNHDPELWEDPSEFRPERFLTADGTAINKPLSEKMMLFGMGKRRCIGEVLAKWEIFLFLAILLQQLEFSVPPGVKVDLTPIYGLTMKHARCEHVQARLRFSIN
Chain of CYP2B6 (P20813 whole entry): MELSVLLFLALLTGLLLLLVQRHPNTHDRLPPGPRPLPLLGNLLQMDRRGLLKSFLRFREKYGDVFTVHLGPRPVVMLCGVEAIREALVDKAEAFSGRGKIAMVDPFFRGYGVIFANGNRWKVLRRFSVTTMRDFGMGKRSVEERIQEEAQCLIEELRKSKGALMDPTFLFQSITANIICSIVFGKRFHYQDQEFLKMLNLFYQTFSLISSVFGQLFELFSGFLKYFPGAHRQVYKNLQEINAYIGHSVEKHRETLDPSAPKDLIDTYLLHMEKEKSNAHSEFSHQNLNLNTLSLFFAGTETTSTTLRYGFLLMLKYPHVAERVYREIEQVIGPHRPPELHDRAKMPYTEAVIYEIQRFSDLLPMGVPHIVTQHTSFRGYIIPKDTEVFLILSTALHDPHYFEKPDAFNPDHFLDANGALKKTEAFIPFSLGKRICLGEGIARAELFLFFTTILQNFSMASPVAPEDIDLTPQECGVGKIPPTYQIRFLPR
Chain of CYP2C8 (P10632 whole entry): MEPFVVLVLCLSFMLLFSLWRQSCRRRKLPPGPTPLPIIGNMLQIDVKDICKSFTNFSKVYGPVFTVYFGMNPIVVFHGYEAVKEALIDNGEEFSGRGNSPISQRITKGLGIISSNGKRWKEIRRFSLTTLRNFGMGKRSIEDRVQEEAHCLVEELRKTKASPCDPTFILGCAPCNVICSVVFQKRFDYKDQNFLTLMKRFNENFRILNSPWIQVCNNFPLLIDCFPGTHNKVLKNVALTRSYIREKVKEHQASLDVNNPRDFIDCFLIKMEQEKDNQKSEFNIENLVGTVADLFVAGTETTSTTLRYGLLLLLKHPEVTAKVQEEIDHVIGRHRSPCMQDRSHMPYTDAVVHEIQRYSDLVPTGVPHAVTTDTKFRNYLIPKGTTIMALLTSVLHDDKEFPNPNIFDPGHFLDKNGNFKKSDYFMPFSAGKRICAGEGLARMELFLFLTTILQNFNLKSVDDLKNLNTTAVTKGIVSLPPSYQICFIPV
Chain of CYP2E1 (P05181 whole entry): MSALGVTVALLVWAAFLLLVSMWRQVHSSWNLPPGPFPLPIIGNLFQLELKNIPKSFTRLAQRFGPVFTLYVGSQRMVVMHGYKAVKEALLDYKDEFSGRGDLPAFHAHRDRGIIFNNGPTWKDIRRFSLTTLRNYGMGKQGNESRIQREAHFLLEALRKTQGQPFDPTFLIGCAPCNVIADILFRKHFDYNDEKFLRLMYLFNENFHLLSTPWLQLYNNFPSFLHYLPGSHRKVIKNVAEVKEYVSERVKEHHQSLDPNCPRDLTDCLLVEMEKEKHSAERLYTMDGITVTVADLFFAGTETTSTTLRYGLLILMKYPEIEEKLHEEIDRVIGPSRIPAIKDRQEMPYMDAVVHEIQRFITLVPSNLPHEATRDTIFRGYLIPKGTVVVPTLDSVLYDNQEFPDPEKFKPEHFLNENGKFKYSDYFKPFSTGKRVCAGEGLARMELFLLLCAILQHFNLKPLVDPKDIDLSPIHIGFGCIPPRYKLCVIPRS

One may read the IC50 as the concentration needed to halve the response being measured. The low end stands for greater potency in that assay, the high end for weaker potency in that assay. In the case of `NCCO` [Etn, monoethanolamine], in data set [1], the “stability in SGF” value was “stable”. In data set [2], the cytotoxicity at 500 µg/mL was around 11%. Moreover, the Ki67 positivity in data set [3] is recorded as around 40%. The percent bound entry in data set [4] (dog plasma), in data set [4] (human plasma), in data set [4] (mouse plasma) and in data set [4] (rat plasma) was “less than 85%” in each case. For the same molecule, the “expression of cell-cycle and apoptotic markers in tumor lysates” value in data set [5] (40 mg/kg Etn-treated mice) was “upregulated p21, Bax, pBcl2 c-PARP, Bim and Bid”. The “p53 protein level in tumors” value in [5] (40 mg/kg Etn-treated mice) is given as “higher levels of p53 protein than untreated control tumors”. For the same molecule, in data set [5] (Etn-treated tumors relative to untreated control tumors), the “HIF1-α protein expression in tumors” value is listed as “Downregulation of HIF1-α protein expression”. Further, in data set [6], the “reduction in tumor volume” value is listed as around 42%. Further, the “reduction in tumor weight” value in [6] is around 29%. The IC50 in data set [7], in data set [8], in data set [9] and in data set [10] was above 100 µM in each case. For the same molecule, the “glucose and glutamine contents” value in data set [11] is “significantly reduced”.
